Here are results for seven molecules from patent US6784184B2, “5-(arylsulfonyl)-,5-(arylsulfinyl), and 5-(arylsulfanyl)-thiazolidine-2,4-diones useful for inhibition of farnesyl-protein transferase” (Wyeth Holdings Corporation, priority 2001, dated 2004).

Data set [1] relates to K-ras dependent human colon carcinoma (LoVo). The data set is described as follows: In vivo effects against K-ras dependent human colon carcinoma (LoVo). As to conditions: rats; for S/T = No. Survivors/No.Treated: Day +35 post tumor cell implantation. How it is done:
Compounds of this invention were tested for in vivo effects in rats against various tumors. For the compound of Example 114, when tested against a K-ras dependent human colon carcinoma (LoVo), the following results were obtained (Table II): […]

Another data set has as its target FPTase (K-Ras substrate) (UniProt P29702+P49355). Nature of the data set: in vitro FTase Inhibition Assay, K-Ras as substrate for farnesylation. Format: biochemical. As to conditions: K-Ras used as substrate for farnesylation. The method in brief: (§1)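 His6-Ras substrate ([…]) with 10 ng FPTase in 50 mM Tris pH 7.5, ZnCl2, MgCl2, KCl, DTT, 0.2% octyl-β-glucoside, 1% DMSO; incubated 30-90 min. TCA/SDS-precipitated Ras filtered, 3H-FPP incorporation counted; % inhibition from background-corrected cpm versus no-compound control.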

For a further data set, the target named is FPTase (H-Ras substrate) (UniProt P29702+P49355). Nature of the data set: in vitro FTase Inhibition Assay, H-Ras as substrate for farnesylation. Type of data set: biochemical. Particulars: H-Ras used as substrate for farnesylation. In outline:
as §1

Structures are written as SMILES.

As to `CC[C@]1(O)C[C@H]2CN(CCc3c([nH]c4ccccc34)[C@@](C(=O)OC)(c3cc4c(cc3OC)N(C=O)[C@H]3[C@@](O)(C(=O)OC)[C@H](OC(C)=O)[C@]5(CC)C=CCN6CC[C@]43[C@@H]65)C2)C1` [Vincristine, reference compound], the “S/T = No. Survivors/No.Treated” value in data set [1] (1 mg/kg IP on days 5, 9 and 13) is listed as 9/10.

In general, IC50 refers to the concentration that inhibits the measured activity by half. Higher therefore signals weaker potency. For the molecule `COc1ccc(S(=O)(=O)C2(CCCC#Cc3cc(NC(=O)OC(C)(C)C)ccc3C)SC(=O)NC2=O)cc1` (single isomer, unassigned; less polar) [Example 222, Enantiomer of(3-{5-[5-(4-Methoxybenzenesulfonyl)-2,4-dioxothiazolidin-5-yl]pent-1-ynyl}-4-methylphenyl)carbamic Acid tert-Butyl Ester (less polar)], the values for the IC50 at FPTase (K-Ras substrate) and on FPTase (H-Ras substrate) were 33 nM and 3.3 nM, respectively.

With `Cc1ccc(S(=O)(=O)C2(CCCC#Cc3ccc(C(C)(C)C)cc3)SC(=O)NC2=O)cc1` (stereo not shown) [Example 157, 5-[5-(4-tert-Butylphenyl)pent-4-ynyl]-5-(toluene-4-sulfonyl)-thiazolidine-2,4-dione], the IC50 amounted to 5000 nM against FPTase (K-Ras substrate) and 270 nM against FPTase (H-Ras substrate).

For `COc1ccc(S(=O)(=O)C2(CCCC#Cc3cc(Cl)ccc3Cl)SC(=O)NC2=O)cc1` (stereo not shown) [Example 114, 5-[5-(2,5-Dichloro-phenyl)pent-4-ynyl]-5-(4-methoxy-benzenesulfonyl)-thiazolidine-2,4-dione], in data set [1] (Day 8, 75* mg/kg IP, BID days 1-20, prepared in 2% Tween 80 in D5W, vs 2% Tween in D5W), the “Mean Tumor Weight” value is 86 mg. Besides, in data set [1] (Day 15, 75* mg/kg IP, BID days 1-20, prepared in 2% Tween 80 in D5W, vs 2% Tween in D5W), the “% T/C” value is 150%. In addition, the “S/T = No. Survivors/No.Treated” value in data set [1] (50 mg/kg IP, BID days 1-20, Methocel/Tween 80 series) is reported as 5/10; in data set [1] (75 mg/kg IP, BID days 1-20, Methocel/Tween 80 series), 8/10; in data set [1] (100 mg/kg IP, once a day days 1-20, Methocel/Tween 80 series) it was 9/10; in data set [1] (100 mg/kg PO, BID days 1-20, 20% BCD in 0.1 N HCl series), 9/10. In addition, the half-inhibitory concentration (IC50) is 32 to 320 nM against FPTase (K-Ras substrate) and 13 to 32 nM at FPTase (H-Ras substrate).

Turning to `O=C1NC(=O)C(CCCC#Cc2cc(Cl)ccc2Cl)(S(=O)(=O)c2ccc(Oc3ccncc3)cc2)S1` (stereo not shown) [Example 116, 5-[5-(2,5-Dichlorophenyl)pent-4-ynyl]-5-[4-(pyridin-4-yloxy)benz-enesulfonyl]-thiazolidine-2,4-dione], the IC50 fell in the range of 17 to 40 nM at FPTase (K-Ras substrate) and 5 to 10 nM at FPTase (H-Ras substrate).

Take `Cc1cc([N+](=O)[O-])ccc1C#CCCCC1(S(=O)(=O)c2ccc(Oc3ccccc3)cc2)SC(=O)NC1=O` (stereo not shown) [Example 129, 5-[5-(2-Methyl-4-nitrophenyl)pent-4-ynyl]-5-(4-phenoxybenzenesulfonyl)-thiazolidine-2,4-dione]: the IC50 against FPTase (K-Ras substrate) was 600 to 790 nM; on FPTase (H-Ras substrate) it was 100 nM.

As to `COc1ccc(S(=O)(=O)C2(CCCC#Cc3cc(NC(=O)OC(C)(C)C)ccc3C)SC(=O)NC2=O)cc1` (stereo not shown) [Example 150, (3-{5-[5-(4-Methoxybenzenesulfonyl)-2,4-dioxothiazolidin-5-yl]pent-1-ynyl}-4-methylphenyl)carbamic Acid tert-Butyl Ester], the IC50 on FPTase (K-Ras substrate) is 16 to 68 nM; on FPTase (H-Ras substrate) it was 7.4 to 32 nM.
